According to US6858638B2, “Substituted indazoles, compositions containing them, method of production and use” (Aventis Pharma S.A., priority 2002, dated 2005):

What was measured:
Type in all cases: biochemical
Aurora2 kinase = molecular target: T1, Aurora2 kinase (Homo sapiens, UniProt O14965); assay: Aurora2 kinase radioactivity scintillation assay using nickel chelate (NuMA substrate); details: 10 μM; read-out: Aurora2 % inhib at 10 μM
T1 construct: A complete recombinant Aurora2 enzyme; His tag (N); made in house; host or cells: E. coli
T1 sequence (O14965 1-403): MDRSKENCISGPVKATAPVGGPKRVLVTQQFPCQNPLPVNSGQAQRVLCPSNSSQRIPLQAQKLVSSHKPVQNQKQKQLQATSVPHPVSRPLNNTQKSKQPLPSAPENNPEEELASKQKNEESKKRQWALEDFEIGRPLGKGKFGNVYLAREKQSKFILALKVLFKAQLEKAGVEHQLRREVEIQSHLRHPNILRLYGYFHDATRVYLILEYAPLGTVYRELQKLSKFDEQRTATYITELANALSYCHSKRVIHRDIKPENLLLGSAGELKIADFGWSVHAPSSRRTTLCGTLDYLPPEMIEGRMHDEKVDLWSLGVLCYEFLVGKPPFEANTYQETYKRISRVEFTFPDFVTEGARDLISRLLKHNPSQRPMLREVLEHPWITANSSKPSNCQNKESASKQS
Protocol: The inhibitory effect of compounds with respect to the Aurora2 kinase is determined with a radioactivity scintillation assay using nickel chelate.
A complete recombinant Aurora2 enzyme, the N-terminal end of which was labeled with histidine, was expressed in E. coli and purified to a quality close to homogeneity.
The C-terminal fragment (Q1687-H2101) of a NuMA (Nuclear protein that associates with the Mitotic Apparatus) expressed in E. coli, and the N-terminal end of which was labeled with histidine, was purified by nickel chelate chromatography and used as substrate in the Aurora2 kinase assay. In order to determine the kinase activity, the NuMA substrate is equilibrated by chromatography on a Pharmacia PD10 column, in a buffer (50 mM Tris HCl, pH7.5, 50 mM NaCl, 10 mM MgCl2) to which 10% (v/v) of glycerol and 0.05% (w/v) of NP40 have been added.
The kinase acivitity of Aurora2 is measured by scintillation with nickel chelate (New England Nuclear, model SMP107). Each well contains 100 μl of the following solution: 0.02 μM of Aurora2; 0.5 μM of NuMA substrate; 1 μM of ATP to which 0.5 μCi of ATP-[^33P] has been added. The solutions are incubated for 30 minutes at 37° C. The assay buffer is then removed and the wells are rinsed twice with 300 μl of kinase buffer. The radioactivity is measured in each well using a Packard Model Top Count NXT device.
The background noise is deduced from the measurement of radioactivity by measuring, in duplicate, in wells containing the radioactive ATP alone containing buffered kinase treated in the same way as the other samples.
The activity of the control is determined by measuring, in duplicate, the radioactivity in the complete assay mixture (ATP, Aurora2 and the NuMA substrate) in the absence of test compound.
The inhibition of the Aurora2 with a compound of the invention is expressed as percentage inhibition of the control activity in the absence of test compound. Staurosporine is added to each plate as an inhibition control.

human KDR enzyme = molecular target: T2, human KDR enzyme (Homo sapiens, UniProt P35968); assay: KDR substrate (PLCγ) phosphorylation, scintillation assay; details: 10 μM; read-out: KDR % inhib at 10 μM
T2 construct: The cytoplasmic domain of the human KDR enzyme; GST; made in house; host or cells: SF21 insect cells (baculovirus)
T2 sequence (P35968 786-1356 limits assumed): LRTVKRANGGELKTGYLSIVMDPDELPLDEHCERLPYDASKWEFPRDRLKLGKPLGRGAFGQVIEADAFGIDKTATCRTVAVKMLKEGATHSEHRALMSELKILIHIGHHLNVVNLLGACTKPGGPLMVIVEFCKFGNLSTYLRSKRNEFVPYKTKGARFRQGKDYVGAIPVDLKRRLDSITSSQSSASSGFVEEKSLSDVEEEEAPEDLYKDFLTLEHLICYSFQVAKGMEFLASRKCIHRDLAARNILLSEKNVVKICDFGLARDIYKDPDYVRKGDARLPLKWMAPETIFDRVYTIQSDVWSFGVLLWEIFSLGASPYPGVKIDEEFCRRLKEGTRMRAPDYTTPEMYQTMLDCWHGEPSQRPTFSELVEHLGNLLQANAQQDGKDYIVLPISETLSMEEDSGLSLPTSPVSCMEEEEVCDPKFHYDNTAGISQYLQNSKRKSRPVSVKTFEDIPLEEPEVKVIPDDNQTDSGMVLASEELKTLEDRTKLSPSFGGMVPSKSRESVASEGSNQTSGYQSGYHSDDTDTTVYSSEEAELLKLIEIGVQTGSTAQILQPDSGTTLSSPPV
Protocol: The inhibitory effect of the compounds is determined in an assay of substrate phosphorylation by the KDR enzyme in vitro using a scintillation technique (96-well plate, NEN).
The cytoplasmic domain of the human KDR enzyme was cloned in the form of a GST fusion into the baculovirus expression vector pFastBac. The protein was expressed in SF21 cells and purified to approximately 60% homogeneity.
The KDR kinase activity is measured in 20 mM MOPS, 10 mM MgCl2, 10 mM MnCl2, 1 mM DTT, 2.5 mM EGTA, 10 mM β-glycerophosphate, pH=7.2, in the presence of 10 mM MgCl2, 100 μM Na3VO4, 1 mM NaF. 10 μl of the compound are added to 70 μl of kinase buffer containing 100 ng of KDR enzyme at 4° C. The reaction is triggered by adding 20 μl of solution containing 2 μg of substrate (SH2-SH3 fragment of PLCγ expressed in the form of a GST fusion protein), 2 μCi γ^33P[ATP] and 2 μM cold ATP. After incubation for 1 hour at 37° C., the reaction is stopped by adding 1 volume (100 μl) of 200 mM EDTA. The incubation buffer is removed and the wells are washed three times with 300 μl of PBS. The radioactivity is measured in each well using Top Count NXT radioactivity counter (Packard).
The background noise is determined by measuring the radioactivity in four different wells containing the radioactive ATP and the substrate alone.
A control for total activity is measured in four different wells containing all the reagents (γ^33P-[ATP], KDR and PLCγ substrate) but in the absence of compound.
The inhibition of the KDR activity with the compound of the invention is expressed as percentage inhibition of the control activity determined in the absence of compound.
The compound SU5614 (Calbiochem) (1 μM) is included in each plate as an inhibition control.

human FAK = molecular target: T3, human FAK (Homo sapiens, UniProt Q05397); assay: FAK autophosphorylation inhibition, time resolved fluorescence (HTRF) assay; details: 10 μM (values without asterisk); read-out: FAK % inhib at 10 μM
T3 construct: The complete cDNA of human FAK; made in house; host or cells: baculovirus expression system (vector pFastBac HTc)
T3 sequence (Q05397 whole entry): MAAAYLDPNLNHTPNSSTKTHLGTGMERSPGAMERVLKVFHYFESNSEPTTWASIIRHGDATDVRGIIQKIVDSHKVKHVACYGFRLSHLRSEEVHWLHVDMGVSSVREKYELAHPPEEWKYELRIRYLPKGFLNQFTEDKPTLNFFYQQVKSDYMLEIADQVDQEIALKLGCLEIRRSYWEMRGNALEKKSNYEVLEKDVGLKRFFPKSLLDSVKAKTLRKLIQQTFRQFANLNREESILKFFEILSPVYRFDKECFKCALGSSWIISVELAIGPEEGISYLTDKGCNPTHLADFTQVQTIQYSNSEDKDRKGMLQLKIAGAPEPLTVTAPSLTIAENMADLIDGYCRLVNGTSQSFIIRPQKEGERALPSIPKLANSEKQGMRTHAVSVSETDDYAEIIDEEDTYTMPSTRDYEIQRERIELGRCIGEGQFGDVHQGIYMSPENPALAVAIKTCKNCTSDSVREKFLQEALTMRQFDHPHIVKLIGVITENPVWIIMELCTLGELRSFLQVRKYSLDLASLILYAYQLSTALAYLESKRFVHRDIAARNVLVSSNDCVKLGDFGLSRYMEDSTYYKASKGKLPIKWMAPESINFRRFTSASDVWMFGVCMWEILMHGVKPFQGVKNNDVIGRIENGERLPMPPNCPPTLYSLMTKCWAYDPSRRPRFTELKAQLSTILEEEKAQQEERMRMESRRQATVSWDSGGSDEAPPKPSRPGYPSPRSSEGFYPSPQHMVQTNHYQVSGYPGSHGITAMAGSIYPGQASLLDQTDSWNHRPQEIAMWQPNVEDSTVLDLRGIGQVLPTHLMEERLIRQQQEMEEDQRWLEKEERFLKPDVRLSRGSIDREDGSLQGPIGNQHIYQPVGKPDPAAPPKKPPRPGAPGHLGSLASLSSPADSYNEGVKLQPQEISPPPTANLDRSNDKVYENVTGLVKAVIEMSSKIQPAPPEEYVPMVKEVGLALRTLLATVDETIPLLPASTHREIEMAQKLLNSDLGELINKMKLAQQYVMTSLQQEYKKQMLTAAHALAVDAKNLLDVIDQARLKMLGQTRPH
Protocol: The inhibitory activity of the compounds on FAK is determined by measuring the inhibition of the autophosphorylation of the enzyme using a time resolved fluorescence (HTRF) assay.
The complete cDNA of human FAK, the N-terminal end of which was labeled with histidine, was cloned into a baculovirus expression vector pFastBac HTc. The protein was expressed and purified to approximately 70% homogeneity.
The kinase activity is determined by incubating the enzyme (6.6 μg/ml) with various concentrations of test compound in a 50 mM Hepes buffer, pH=7.2, containing 10 mM MgCl2, 100 μM Na3VO4 and 15 μM d'ATP for 1 hour at 37° C. The enzyme reaction is stopped by adding Hepes buffer, pH=7.0, containing […], 133 mM EDTA and 0.1% BSA, and the labeling is carried out, over 1 to 2 hours at ambient temperature, by adding to this buffer an anti-Histidine antibody labeled with XL665 and a monoclonal antibody phosphospecific for tyrosine, conjugated to europium cryptate (Eu-K). The characteristics of the two fluorophores are available in G. Mathis et al., Anticancer Research, 1997, 17, pages 3011-3014. The transfer of energy from the excited europium cryptate to the XL665 acceptor is proportional to the degree of autophosphorylation of FAK. The long-lived signal specific for XL-665 is measured in a Packard Discovery plate counter. All the assays are carried out in duplicate and the mean of the two assays is calculated. The inhibition of the FAK autophosphorylation activity with compounds of the invention is expressed as percentage inhibition compared to a control whose activity is measured in the absence of test compound. The [signal at 665 nm/signal at 620 nm] ratio is used for the calculation of the % inhibition.

Compound | inhibition at 10 µM (Aurora2 kinase) [%] | inhibition at 10 µM (human KDR enzyme) [%] | inhibition at 10 µM (human FAK) [%]
COc1ccc(S(=O)(=O)Nc2ccc3[nH]nc(-c4ccccc4)c3c2)cc1 [Example 120, 4-Methoxy-N-(3-phenyl-1H-indazol-5-yl)-benzenesulfonamide] | 52 | 69 | 36
CC(C)(C)c1ccc(S(=O)(=O)Nc2ccc3[nH]nc(-c4ccccc4)c3c2)cc1 [Example 121, 4-tert-Butyl-N-(3-phenyl-1H-indazol-5-yl)-benzenesulfonamide] | 27 | 39 | 5
Cc1ccc(S(=O)(=O)Nc2ccc3[nH]nc(-c4ccccc4)c3c2)cc1 [Example 122, 4-Methyl-N-(3-phenyl-1H-indazol-5-yl)-benzenesulfonamide] | 65 | 72 | 23
CC(C)S(=O)(=O)Nc1ccc2[nH]nc(-c3ccccc3)c2c1 [Example 123, 1-Methyl-N-(3-phenyl-1H-indazol-5-yl)ethanesulfonamide] | 82 | 62 | 30
CS(=O)(=O)Nc1ccc2[nH]nc(-c3ccccc3)c2c1 [Example 124, N-(3-Phenyl-1H-indazol-5-yl)-methanesulfonamide] | 60 | 55 | 16
O=S(=O)(Cc1ccccc1)Nc1ccc2[nH]nc(-c3ccccc3)c2c1 [Example 125, 1-Phenyl-N-(3-phenyl-1H-indazol-5-yl)-methanesulfonamide] | 65 | 56 | 17
O=S(=O)(/C=C/c1ccccc1)Nc1ccc2[nH]nc(-c3ccccc3)c2c1 [Example 126, (E)-2-Phenyl-N-(3-phenyl-1H-indazol-5-yl)-ethylenesulfonamide] | 50 | 58 | 7
CCS(=O)(=O)Nc1ccc2[nH]nc(-c3ccccc3)c2c1 [Example 127, N-(3-Phenyl-1H-indazol-5-yl)-ethanesulfonamide] | 78 | 63 | 32
CCCS(=O)(=O)Nc1ccc2[nH]nc(-c3ccccc3)c2c1 [Example 128, N-(3-Phenyl-1H-indazol-5-yl)propanesulfonamide] | 87 | 49 | 55
N#Cc1ccc(S(=O)(=O)Nc2ccc3[nH]nc(-c4ccccc4)c3c2)cc1 [Example 143, 4-Cyano-N-(3-phenyl-1H-indazol-5-yl)-benzenesulfonamide] | 64 | 87 | 23
CCCCOc1ccc(S(=O)(=O)Nc2ccc3[nH]nc(-c4ccccc4)c3c2)cc1 [Example 145, 4-Butoxy-N-(3-phenyl-1H-indazol-5-yl)-benzenesulfonamide] | 26 | 14 | 0
CC(=O)Nc1ccc(S(=O)(=O)Nc2ccc3[nH]nc(-c4ccccc4)c3c2)cc1Cl [Example 146, N-[2-Chloro-4-(3-phenyl-1H-indazol-5-ylsulfamoyl)phenyl]-acetamide] | 57 | 47 | 14
O=S(=O)(Nc1ccc2[nH]nc(-c3ccccc3)c2c1)c1ccc(-c2ccon2)s1 [Example 150, N-(3-Phenyl-1H-indazol-5-yl)-(5-isoxazol-3-ylthiophene)-2-sulfonamide] | 82 | 75 | 3
O=[N+]([O-])c1ccccc1CS(=O)(=O)Nc1ccc2[nH]nc(-c3ccccc3)c2c1 [Example 151, C-(2-Nitrophenyl)-N-(3-phenyl-1H-indazol-5-yl)-methanesulfonamide] | 84 | 63 | 33
Cc1c(S(=O)(=O)Nc2ccc3[nH]nc(-c4ccccc4)c3c2)sc2ccc(Cl)cc12 [Example 153, N-(3-Phenyl-1H-indazol-5-yl)-(5-chloro-3-methyl-benzo[b]thiophene)-2-sulfonamide] | 25 | 24 | 0
O=S(=O)(Nc1ccc2[nH]nc(-c3ccccc3)c2c1)c1cccc(-c2ccccc2)c1 [Example 157, N-(3-Phenyl-1H-indazol-5-yl)-biphenyl-3-sulfonamide] | 38 | 63 | 0
O=S(=O)(Nc1ccc2[nH]nc(-c3ccccc3)c2c1)c1ccc(OC(F)(F)F)cc1 [Example 160, 4-Trifluoromethoxy-N-(3-phenyl-1H-indazol-5-yl)benzenesulfonamide] | 26 | 51 | 3
COc1ccc(Cl)cc1-c1n[nH]c2ccc(NS(=O)(=O)c3ccccc3S(C)(=O)=O)cc12 [Example 215, N-[3-(5-Chloro-2-methoxy-phenyl)-1H-indazol-5-yl]-2-methanesulfonyl-benzenesulfonamide] | 86 | 39 | 97
